According to patent publication US20140315889A1, “HYDROXAMATE DERIVATIVES FOR HDAC INHIBITOR, AND THE PHARMACEUTICAL COMPOSITION COMPRISING THEREOF” (CHONG KUN DANG PHARMACEUTICAL CORP., priority 2011, published 2014):

Test system: collagen-induced arthritis model
Experiment: Effectiveness of compound 237 in a collagen-induced arthritis model
Format: in vivo
From the text: 6-week aged male DBA1J mice were used in the experiment. The animal facility was kept at constant temperature and constant humidity with a 12-hr dark/12-hr light cycle, and the animals were allowed to access food and water ad libitum. The animals were acclimated to the cage for 7 days.
Each arthritis-onset animals were selected and then promptly used in the experiments. The experimental animal groups consist of • A. a vehicle-control group administered with only vehicle once a day via s.c. (subcutaneous injection), • B. a compound test group administered with compound 237 in dose of 15 mg/kg q.d. (once a day) via s.c., • C. a compound test group administered with compound 237 in dose of 15 mg/kg b.i.d. (twice a day) via s.c., and • D. a compound test group administered with compound 237 in dose of 30 mg/kg q.d. via s.c.
A solution of compound 237 for administration was prepared using Cremophore EL:Ethanol:Saline=1.5:1.5:7 as a vehicle just before administration. It was administered in a volume of 5 ml/kg via s.c. with each doses of 15 and 30 mg/kg once or twice a day.
Bovine type 2 collagen (Chondrex) and complete Freund's adjuvant (Chondrex) are mixed in 1:1 to become an emulsion. Each 0.1 ml of the obtained emulsion was injected to the tail of each mouse intradermally for immunization. After 21 days, Bovine type 2 collagen (Chondrex) and incomplete Freund's adjuvant (Chondrex) are mixed in 1:1 to become an emulsion. Each 0.1 ml of the obtained emulsion was injected to the hips of each mouse intradermally for boosting. After boosting, the mice were divided in each groups, and administered with compound 237 or only vehicle according to the administration schedule. Their body weights and clinical scores were evaluated three times per week.
From each four feet of a mouse, the clinical scores were evaluated according to the following criterion and added together thereby to determine the clinical score of the mouse (normal, 0; and the most severe edema, 16).
All the results were expressed as mean±SEM, and the experimented groups were compared with each other using one-way ANOVA test (Dunnett's test, p<0.001).

## CC1(C)CC(=O)c2c(C(F)(F)F)nn(Cc3ccc(C(=O)NO)cc3)c2C1 [Compound 237, 4-((6,6-dimethyl-4-oxo-3-(trifluoromethyl)-4,5,6,7-tetrahydro-1H-indazol-1-yl)methyl)-N-hydroxybenzamide]
15 mpk b.i.d. s.c.
  clinical score decreased, compared with the control group (only vehicle): 53%
15 mpk q.d. s.c.
  clinical score decreased, compared with the control group (only vehicle): 7%
30 mpk q.d. s.c.
  clinical score decreased, compared with the control group (only vehicle): 65%
During the administration of drug, 15 and 30 mg/kg s.c.
  body-weight loss or toxic side effect: body-weight loss or toxic side effect was not observed
